{"source": "patent US20260285850A1", "about": "“SUBSTITUTED OXAZOLIDINONES AND IMIDAZOLINONES AS HERBICIDES” (FMC CORPORATION, priority 2023, published 2026)", "type_in_all_cases": "in vivo", "key": {"[1]": {"tested_on": "barnyardgrass (Echinochloa crus-galli)", "assay": "Test A preemergence soil spray, visual injury rating 0-100", "settings": "10 days", "summary_of_the_method": "(§1)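 Visual injury ratings (0, no effect; 100, complete control) were assigned relative to untreated plants 10 days after treatment. Test chemicals, formulated with a surfactant-containing non-phytotoxic solvent, were applied in loam-sand soil either as a directed soil spray before emergence or to emerged plants, and plants were kept in a greenhouse.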"}, "[2]": {"tested_on": "blackgrass (Alopecurus myosuroides)", "assay": "Test A preemergence soil spray, visual injury rating 0-100", "settings": "10 days", "summary_of_the_method": "as §1"}, "corn (Zea mays) [3]": {"tested_on": "corn (Zea mays)", "assay": "Test A preemergence soil spray, visual injury rating 0-100", "settings": "10 days", "summary_of_the_method": "as §1"}, "[4]": {"tested_on": "green foxtail (Setaria viridis)", "assay": "Test A preemergence soil spray, visual injury rating 0-100", "settings": "10 days", "summary_of_the_method": "as §1"}, "kochia (Bassia scoparia) [5]": {"tested_on": "kochia (Bassia scoparia)", "assay": "Test A preemergence soil spray, visual injury rating 0-100", "settings": "10 days", "summary_of_the_method": "as §1"}, "[6]": {"tested_on": "oat, wild (wild oat, Avena fatua)", "assay": "Test A preemergence soil spray, visual injury rating 0-100", "settings": "10 days", "summary_of_the_method": "as §1"}, "[7]": {"tested_on": "palmer (palmer amaranth, palmer pigweed, Amaranthus palmeri)", "assay": "Test A preemergence soil spray, visual injury rating 0-100", "settings": "10 days", "summary_of_the_method": "as §1"}, "[8]": {"tested_on": "ragweed (common ragweed, Ambrosia artemisiifolia)", "assay": "Test A preemergence soil spray, visual injury rating 0-100", "settings": "10 days", "summary_of_the_method": "as §1"}, "[9]": {"tested_on": "ryegrass, Italian (italian ryegrass, Lolium multiflorum)", "assay": "Test A preemergence soil spray, visual injury rating 0-100", "settings": "10 days", "summary_of_the_method": "as §1"}, "soybean (Glycine max) [10]": {"tested_on": "soybean (Glycine max)", "assay": "Test A preemergence soil spray, visual injury rating 0-100", "settings": "10 days", "summary_of_the_method": "as §1"}, "[11]": {"tested_on": "wheat (Triticum aestivum)", "assay": "Test A preemergence soil spray, visual injury rating 0-100", "settings": "10 days", "summary_of_the_method": "as §1"}, "[12]": {"tested_on": "barnyardgrass (Echinochloa crus-galli)", "assay": "Test A postemergence application, visual injury rating 0-100", "summary_of_the_method": "as §1"}, "[13]": {"tested_on": "blackgrass (Alopecurus myosuroides)", "assay": "Test A postemergence application, visual injury rating 0-100", "summary_of_the_method": "as §1"}, "corn (Zea mays) [14]": {"tested_on": "corn (Zea mays)", "assay": "Test A postemergence application, visual injury rating 0-100", "summary_of_the_method": "as §1"}, "[15]": {"tested_on": "galium (catchweed bedstraw, Galium aparine)", "assay": "Test A postemergence application, visual injury rating 0-100", "settings": "Postemergence, 16 g ai/ha, greenhouse 10 days; 0 no effect, 100 complete control", "summary_of_the_method": "as §1"}, "[16]": {"tested_on": "green foxtail (Setaria viridis)", "assay": "Test A postemergence application, visual injury rating 0-100", "summary_of_the_method": "as §1"}, "[17]": {"tested_on": "horseweed (Erigeron canadensis)", "assay": "Test A postemergence application, visual injury rating 0-100", "summary_of_the_method": "as §1"}, "kochia (Bassia scoparia) [18]": {"tested_on": "kochia (Bassia scoparia)", "assay": "Test A postemergence application, visual injury rating 0-100", "summary_of_the_method": "as §1"}, "[19]": {"tested_on": "oat, wild (wild oat, Avena fatua)", "assay": "Test A postemergence application, visual injury rating 0-100", "summary_of_the_method": "as §1"}, "[20]": {"tested_on": "palmer (palmer amaranth, palmer pigweed, Amaranthus palmeri)", "assay": "Test A postemergence application, visual injury rating 0-100", "summary_of_the_method": "as §1"}, "[21]": {"tested_on": "ragweed (common ragweed, Ambrosia artemisiifolia)", "assay": "Test A postemergence application, visual injury rating 0-100", "summary_of_the_method": "as §1"}, "[22]": {"tested_on": "ryegrass, Italian (italian ryegrass, Lolium multiflorum)", "assay": "Test A postemergence application, visual injury rating 0-100", "summary_of_the_method": "as §1"}, "soybean (Glycine max) [23]": {"tested_on": "soybean (Glycine max)", "assay": "Test A postemergence application, visual injury rating 0-100", "summary_of_the_method": "as §1"}, "[24]": {"tested_on": "wheat (Triticum aestivum)", "assay": "Test A postemergence application, visual injury rating 0-100", "summary_of_the_method": "as §1"}, "[25]": {"tested_on": "barnyardgrass (Echinochloa crusgalli)", "assay": "Test B flooded paddy test, visual plant response rating 0-100", "settings": "250 g ai/ha, Flood, applied to paddy water, evaluated after 13 days", "summary_of_the_method": "(§2)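 2-leaf plants; flood 3 cm over soil; compound dosed into paddy water; depth kept constant; greenhouse 13 d; visual scoring vs controls. Dash = no result.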"}, "[26]": {"tested_on": "ducksalad (Heteranthera limosa)", "assay": "Test B flooded paddy test, visual plant response rating 0-100", "settings": "250 g ai/ha, Flood, applied to paddy water, evaluated after 13 days", "summary_of_the_method": "as §2"}, "rice (Oryza sativa)": {"tested_on": "rice (Oryza sativa)", "assay": "Test B flooded paddy test, visual plant response rating 0-100", "settings": "250 g ai/ha, Flood, applied to paddy water, evaluated after 13 days", "summary_of_the_method": "as §2"}, "[27]": {"tested_on": "sedge, umbrella (small-flower umbrella sedge, Cyperus difformis)", "assay": "Test B flooded paddy test, visual plant response rating 0-100", "settings": "250 g ai/ha, Flood, applied to paddy water, evaluated after 13 days", "summary_of_the_method": "as §2"}, "[28]": {"settings": "62 g ai/ha, 0 = no effect, 100 = complete control"}, "[29]": {"settings": "62 g ai/ha, postemergence, 10 days, 0 = no effect, 100 = complete control"}, "[30]": {"settings": "Postemergence, 16 g ai/ha, greenhouse 10 days, 0 no effect, 100 complete control"}}, "data": [{"smiles": "CSCCOC(=O)C1=CCC(NC(=O)C2(C)CN(c3cc(Cl)cc(Cl)c3)C(=O)O2)C1", "note": "(stereo not drawn) [Compound 146]", "values": [{"measurement": "Barnyardgrass plant response rating", "setting": "[1]; 16 g ai/ha, 0 to 100 scale", "result": 0}, {"measurement": "Barnyardgrass plant response rating (0-100)", "setting": "[1]; [28]", "result": 0}, {"measurement": "Blackgrass plant response rating", "setting": "[2]; 16 g ai/ha, 0 to 100 scale", "result": 0}, {"measurement": "Blackgrass plant response rating (0-100)", "setting": "[2]; [28]", "result": 0}, {"measurement": "Corn plant response rating", "setting": "corn (Zea mays) [3]; 16 g ai/ha, 0 to 100 scale", "result": 0}, {"measurement": "Corn plant response rating (0-100)", "setting": "corn (Zea mays) [3]; [28]", "result": 0}, {"measurement": "Foxtail, Green plant response rating", "setting": "[4]; 16 g ai/ha, 0 to 100 scale", "result": 0}, {"measurement": "Foxtail, Green plant response rating (0-100)", "setting": "[4]; [28]", "result": 0}, {"measurement": "Kochia plant response rating", "setting": "kochia (Bassia scoparia) [5]; 16 g ai/ha, 0 to 100 scale", "result": 0}, {"measurement": "Kochia plant response rating (0-100)", "setting": "kochia (Bassia scoparia) [5]; [28]", "result": 0}, {"measurement": "Oat, Wild plant response rating", "setting": "[6]; 16 g ai/ha, 0 to 100 scale", "result": 0}, {"measurement": "Oat, Wild plant response rating (0-100)", "setting": "[6]; [28]", "result": 0}, {"measurement": "Pigweed, Palmer plant response rating", "setting": "[7]; 16 g ai/ha, 0 to 100 scale", "result": 0}, {"measurement": "Pigweed, Palmer plant response rating (0-100)", "setting": "[7]; [28]", "result": 0}, {"measurement": "Ragweed plant response rating", "setting": "[8]; 16 g ai/ha, 0 to 100 scale", "result": 0}, {"measurement": "Ragweed plant response rating (0-100)", "setting": "[8]; [28]", "result": 0}, {"measurement": "Ryegrass, Italian plant response rating", "setting": "[9]; 16 g ai/ha, 0 to 100 scale", "result": 0}, {"measurement": "Ryegrass, Italian plant response rating (0-100)", "setting": "[9]; [28]", "result": 20}, {"measurement": "Soybean plant response rating", "setting": "soybean (Glycine max) [10]; 16 g ai/ha, 0 to 100 scale", "result": 0}, {"measurement": "Soybean plant response rating (0-100)", "setting": "soybean (Glycine max) [10]; [28]", "result": 0}, {"measurement": "Wheat plant response rating", "setting": "[11]; 16 g ai/ha, 0 to 100 scale", "result": 0}, {"measurement": "Wheat plant response rating (0-100)", "setting": "[11]; [28]", "result": 0}, {"measurement": "Barnyardgrass plant response rating (0-100)", "setting": "[12]; [29]", "result": 20}, {"measurement": "Barnyardgrass plant response rating (0 to 100 scale)", "setting": "[12]; [30]", "result": 0}, {"measurement": "Blackgrass plant response rating (0-100)", "setting": "[13]; [29]", "result": 0}, {"measurement": "Blackgrass plant response rating (0 to 100 scale)", "setting": "[13]; [30]", "result": 0}, {"measurement": "Corn plant response rating (0-100)", "setting": "corn (Zea mays) [14]; [29]", "result": 0}, {"measurement": "Corn plant response rating (0 to 100 scale)", "setting": "corn (Zea mays) [14]; [30]", "result": 0}, {"measurement": "Galium plant response rating (0 to 100 scale)", "setting": "[15]", "result": 0}, {"measurement": "Foxtail, Green plant response rating (0-100)", "setting": "[16]; [29]", "result": 0}, {"measurement": "Foxtail, Green plant response rating (0 to 100 scale)", "setting": "[16]; [30]", "result": 0}, {"measurement": "Horseweed plant response rating (0-100)", "setting": "[17]; [29]", "result": 10}, {"measurement": "Horseweed plant response rating (0 to 100 scale)", "setting": "[17]; [30]", "result": 0}, {"measurement": "Kochia plant response rating (0-100)", "setting": "kochia (Bassia scoparia) [18]; [29]", "result": 0}, {"measurement": "Kochia plant response rating (0 to 100 scale)", "setting": "kochia (Bassia scoparia) [18]; [30]", "result": 0}, {"measurement": "Oat, Wild plant response rating (0-100)", "setting": "[19]; [29]", "result": 0}, {"measurement": "Oat, Wild plant response rating (0 to 100 scale)", "setting": "[19]; [30]", "result": 0}, {"measurement": "Pigweed, Palmer plant response rating (0-100)", "setting": "[20]; [29]", "result": 0}, {"measurement": "Pigweed, Palmer plant response rating (0 to 100 scale)", "setting": "[20]; [30]", "result": 0}, {"measurement": "Ragweed plant response rating (0-100)", "setting": "[21]; [29]", "result": 0}, {"measurement": "Ragweed plant response rating (0 to 100 scale)", "setting": "[21]; [30]", "result": 0}, {"measurement": "Ryegrass, Italian plant response rating (0-100)", "setting": "[22]; [29]", "result": 0}, {"measurement": "Ryegrass, Italian plant response rating (0 to 100 scale)", "setting": "[22]; [30]", "result": 0}, {"measurement": "Soybean plant response rating (0-100)", "setting": "soybean (Glycine max) [23]; [29]", "result": 0}, {"measurement": "Soybean plant response rating (0 to 100 scale)", "setting": "soybean (Glycine max) [23]; [30]", "result": 0}, {"measurement": "Wheat plant response rating (0-100)", "setting": "[24]; [29]", "result": 0}, {"measurement": "Wheat plant response rating (0 to 100 scale)", "setting": "[24]; [30]", "result": 0}, {"measurement": "Plant response rating, Barnyardgrass (0 to 100 scale, 0 is no effect and 100 is complete control)", "setting": "[25]", "result": 0}, {"measurement": "Plant response rating, Ducksalad (0 to 100 scale, 0 is no effect and 100 is complete control)", "setting": "[26]", "result": 0}, {"measurement": "Plant response rating, Rice (0 to 100 scale, 0 is no effect and 100 is complete control)", "setting": "rice (Oryza sativa)", "result": 0}, {"measurement": "Plant response rating, Sedge, Umbrella (0 to 100 scale, 0 is no effect and 100 is complete control)", "setting": "[27]", "result": 0}]}]}
